Measured values as given in patent US20230071283A1, “COMPOSITIONS AND METHODS FOR SELECTIVE PROTEIN EXPRESSION” (Novartis AG, priority 2017, published 2023).
“Also recorded” adds a separate entry of the source.

Key:
[1] = system: CD19 sCAR T cells; assay: In vivo depletion of CD19 sCAR T cells by AP1903 in Nalm6-injected mice
Experimental: FIG. 40 is a series of flow cytometry graphs depicting that the suicide activation results in pheripheral depletion of the suicide CAR T cells. Mice were injected with Nalm6 cells and after 5 days were treated with 19 s CAR T cells. CD19s CAR T cells were sorted before injection based on scFV expression. Flow plots show peripheral T cells (CD3+, CD45+) on day 8 and day 26. CD19 sCAR T cells were depleted on day 10 by injection of AP1903 (10 mg/kg).
The quantification of T cells was done from several mice. Mice were treated with AP1903 on day 10 to deplete sCAR T cells.

[2] = system: universal sCAR T cells; assay: Depletion of universal sCAR T cells by AP1903 in BT mice (qPCR, peripheral blood); assay type: in vivo; conditions: 4 weeks after AP1903 treatment (3 daily injections with 10 mg/kg)
Experimental: FIG. 44 is a schematic timeline of the experimental design of the in vivo experiment of the present invention. Using BT (bone marrow, liver, and thymus) mice for assessment of universal sCAR function in a non-oncology mouse model. Human fetal bone marrow and thymus were implanted into NSG mice on day −91. Validation of engraftment was done by flow cytometry on day −27. Universal T cells expressing CD19 sCAR T cells were injected on day 0, B cell depletion was assessed on day 10 and mice were treated with AP1903 (3 daily injections with 10 mg/kg). sCAR survival was assessed with qPCR.
A qPCR from peripheral blood WPRE copy number was performed with a gDNA, 4 weeks after AP1903 treatment.

[3] = target: T1, FKBPFD furin degron domain fused to an anti-CD19 scFv CAR (Homo sapiens, UniProt P62942, F37V); assay: CAR expression by FACS in Jurkat T cells transduced with FKBPFD furin degron-anti-CD19 scFv CAR; assay type: cell-based; conditions: 1 μM Shield1
T1 construct: signal peptide (CD8 leader) (N); furin cleavage site (C); anti-CD19 scFv CAR (CD8 hinge, 4-1BB, CD3zeta) (C); expressed in transfected cells; host or cells: Jurkat T cells, lentiviral transduction
T1 sequence (P62942 with tags, fused parts or gaps F37V): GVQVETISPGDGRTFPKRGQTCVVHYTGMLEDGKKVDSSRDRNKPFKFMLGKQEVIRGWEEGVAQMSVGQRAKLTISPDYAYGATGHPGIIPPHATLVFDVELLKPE
Experimental: The scFvs used in the CAR constructs that were assessed in Examples 3 were independently synthesized based on an anti-CD19 scFv sequence described above. […] The proteins used in the furin-degron constructs that were assessed in Examples 4-5 were independently synthesized based on publicly available sequence data.
Jurkat cell lines were transduced by spinoculation with lentiviral supernatant from 293T cells transfected with pELPS using the protein-furin domain regulated plasmid DNA.
Trimethoprim (TMP) was resuspended in DMSO. In all instances where concentrations not indicated, compounds were added for 24 hours in total prior to analysis by flow cytometry.
FKBPFD transduced cells treated with 1 μM Shield1. ERαFD transduced cells treated with 1 μM Bazedoxifene. DHFRFD transduced cells treated with 1 mM TMP. […] Black=UTD; Gray=construct, no compound; White=construct, compound.

[4] = system: CD20 on-CAR; assay: CD20 on-CAR surface expression (MFI, flow cytometry) versus Shield-1 concentration; assay type: cell-based
Source text: FIG. 36 is series of graphs illustrating the modulation of CAR surface expression with FKBP ligand Shield-1. CD20 on-CAR T cells were stained for CAR expression and the mean fluorescence intensity (MFI, assessed by flow cytometry) of the CAR signal was plotted against the Shield-1 concentration. […] Absence of Shield-1 results in ˜60% reduction of CD20 on-CAR expression (bottom graph).

[5] = system: CD19rev CAR T cells; assay: Titration of Shield-1 in CD19rev CAR T cells (remaining CAR+ cells, flow cytometry); assay type: cell-based; conditions: different doses of Shield-1 for 24 h
Experimental: FIG. 37 is a series of flow cytometry graphs depicting the titration of Shield-1 in CD19rev CAR. CD19rev CAR T cells (˜38% transduced) were incubated in different doses of Shield-1 for 24 h to assess dose-dependent caspase-9 acitvation. The remaining CAR+ cells were quantified by flow cytometry.

[6] = system: primary human T cells; assay: FurON CAR19 surface expression in primary human T cells (FACS, protein L); assay type: cell-based; conditions: cells prepared for the in vivo study; IL2 and 1 uM bazedoxifene; day 10
Experimental: Bazedoxifene and raloxifene were resuspended in DMSO. In all instances, where concentrations not indicated, compounds were added at 1 uM for 24 hours prior to analysis by flow cytometry.
. […] Cell number, size, and viability were also assessed.
Untransduced T cells (UTDs) and the parental CAR19 were used as controls. […] .
CART cells were generated by starting with blood from healthy apheresed donors whose naïve T cells were obtained by negative selection for T cells, CD4+ and CD8+ lymphocytes. These cells were activated by the addition of CD3/CD28 beads (Dynabeads® Human T-Expander CD3/CD28, Thermo Fisher Scientific) at a ratio of 1:3 (T cell to bead) in T cell medium (RPMI1640, 10% heat-inactivated fetal calf serum (FCS), 2 mM L-glutamine, lx Penicillin/Streptomycin, 100 μM non-essential amino acids, 1 mM Sodium Pyruvate, 10 mM Hepes, and 55 μM 2-mercaptoethanol) at 37° C., 5% CO2. T cells were cultured at 4×10^6 T cells (UTDs) or 5×10^6 (CART19 and FurON CART19) in 1 mL medium per well of a 24-well plate. […] T cells began to divide in a logarithmic growth pattern, which is monitored by measuring the cell counts per mL, and T cells are diluted in fresh medium every two days. […] On day 10 the cells are collected and the percentage of cells transduced (expressing the CD19-specific CAR on the cell surface) was determined by flow cytometry analysis on a FACS Fortessa (BD). […]

[7] = system: NALM6, a CD19+ target cell line; assay: Cytokine secretion in co-culture with target cells; conditions: presence or absence of bazedoxifene; 20 hours; versus parental CAR19
[8] = system: CD19+ NALM6 cells; assay: Proliferation assay in co-culture with target cells (FACS, counting beads); conditions: presence or absence of bazedoxifene; 4 days; versus parental CAR19
[9] = system: NALM6 (CD19+); assay: Killing assay with luciferized target cells (remaining luciferase activity); conditions: presence or absence of bazedoxifene; 20 hours; versus parental CAR19

Question: How did the “T cells in spleen (human CD3 staining)” value ([1]; >2 weeks after AP1903 treatment) turn out when `CC[C@H](C(=O)N1CCCC[C@H]1C(=O)O[C@H](CCc1ccc(OC)c(OC)c1)c1cccc(OCC(=O)NCCNC(=O)COc2cccc([C@@H](CCc3ccc(OC)c(OC)c3)OC(=O)[C@@H]3CCCCN3C(=O)[C@@H](CC)c3cc(OC)c(OC)c(OC)c3)c2)c1)c1cc(OC)c(OC)c(OC)c1` [AP1903] was run?
Answer: T cells are not detectable

Question: What about the “Peripheral T cells (CD3+, CD45+)” value ([1]; AP1903 10 mg/kg on day 10, versus vehicle, 10 mg/kg) of the same molecule?
Answer: T cells are hardly detectable after suicide activation; also recorded: the T cell percentages drop in the AP1903 group

Question: What about the “sCAR T cells in spleen (quantitative PCR)” value ([1]; AP1903 versus vehicle treated mice) of the same molecule?
Answer: near-total sCAR absence in most mice

Question: And the “sCAR T cells in peripheral blood (qPCR, WPRE copy number)” value [2]?
Answer: can be depleted with AP1903 treatment; also recorded: near-total sCAR absence in 2/3 mice

Question: For `CC[C@H](C(=O)N1CCCC[C@H]1C(=O)O[C@H](CCc1ccc(OC)c(OC)c1)c1cccc(OCCN2CCOCC2)c1)c1cc(OC)c(OC)c(OC)c1` [Shield1, Shield-1], which “Expression of the anti-CD19 scFv” value [3] is on record?
Answer: inducible in the presence of compound; also recorded: inducible by the stabilizing compound

Question: What about the “Kinetics of CAR expression following compound addition” value [3] of the same molecule?
Answer: occurs rapidly following compound addition and is stable throughout the period of compound treatment

Question: And the “CAR expression (MFI) versus Shield-1 concentration” value ([4]; CD20 on-CAR T cells)?
Answer: dose-dependent increase in CAR expression

Question: And the “reduction of CD20 on-CAR expression” value ([4]; absence of Shield-1)?
Answer: ~60%

Question: What about the “caspase-9 activation and apoptosis (proportion of CAR+ cells)” value [5] of the same molecule?
Answer: lower doses of Shield-1 result in higher caspase-9 activation and increased apoptosis

B1: construct #130: furin degron with fewer mutations (ERmut2) fused to anti-CD19 scFV CAR; same furin cleavage sequence as #106 (protein)
chain: RSSLALSLTADQMVSALLDAEPPILYSEYDPTRPFSEASMMGLLTNLADRELVHMINWAKRVPGFVDLTLHDQVHLLECAWMEILMIGLVWRSMEHPGKLLFAPNLLLDRNQGKCVEGGVEIFDMLLATSSRFRMMNLQGEEFVCLKSIILLNSGVYTFLSSTLKSLEEKDHIHRVLDKITDTLIHLMAKAGLTLQQQHQRLAQLLLILSHIRHMSNKRMEHLYSMKCKNVVPLSDLLLEMLDAHRLGTGAEDPRPSRKRRSLGDVGEIVMTQSPATLSLSPGERATLSCRASQDISKYLNWYQQKPGQAPRLLIYHTSRLHSGIPARFSGSGSGTDYTLTISSLQPEDFAVYFCQQGNTLPYTFGQGTKLEIKGGGGSGGGGSGGGGSQVQLQESGPGLVKPSETLSLTCTVSGVSLPDYGVSWIRQPPGKGLEWIGVIWGSETTYYSSSLKSRVTISKDNSKNQVSLKLSSVTAADTAVYYCAKHYYYGGSYAMDYWGQGTLVTVSSTTTPAPRPPTPAPTIASQPLSLRPEACRPAAGGAVHTRGLDFACDIYIWAPLAGTCGVLLLSLVITLYCKRGRKKLLYIFKQPFMRPVQTTQEEDGCSCRFPEEEEGGCELRVKFSRSADAPAYKQGQNQLYNELNLGRREEYDVLDKRRGRDPEMGGKPRRKNPQEGLYNELQKDKMAEAYSEIGMKGERRRGKGHDGLYQGLSTATKDTYDALHMQALPPR
Question: B1 was tested. Which “surface expression (mean fluorescence intensity, MFI)” value [6] did it give?
Answer: lower than the observed for CART19

Question: What about the “levels of IFNγ” value [7] of the same molecule?
Answer: secrete cytokines in the presence of CD19+ tumor cells, in a manner that is stabilizing compound-dependent and is noninferior to the parental CAR construct

Question: What about the Proliferation [8] of the same molecule?
Answer: proliferate in the presence of CD19+ tumor cells, in a manner that is stabilizing compound-dependent and is noninferior to the parental CAR construct

Question: And the Percent tumor lysis [9]?
Answer: kill CD19+ tumor cells, in a stabilizing compound- and target-dependent manner and is noninferior to the parental CAR construct
